According to article PMC11528023, “Transport mechanism and structural pharmacology of human urate transporter URAT1” (Cell Research, 2024):

Biological target: T1, URAT1EM (Homo sapiens, UniProt Q96S37, A280P/A304R/A323S/A335R/D313K/DEL311-312/DEL60-62/G295A/G309E/G331A/G338L/G65T/I63V/INS307H/L287I/L292P/L321M/L328V/L337V/L341F/L64S/M324V/M330S/M343V/P317I/P333E/Q332K/R291K/R301K/R325K/R342C/S329A/T288I/T289K/T314N/T339D/W294Q/W300R)
T1 construct: human URAT1 (residues 3–553), a (GGGGS)3 linker, and C-terminal DARPinoff7; expressed in transfected cells; host or cells: HEK293 cells (ATCC, CRL-3216), transient transfection
T1 sequence (Q96S37 with tags, fused parts or gaps DEL60-62/I63V/L64S/G65T/A280P/L287I/T288I/T289K/R291K/L292P/W294Q/G295A/W300R/R301K/A304R/INS307H/G309E/DEL311-312/D313K/T314N/P317I/L321M/A323S/M324V/R325K/L328V/S329A/M330S/G331A/Q332K/P333E/A335R/L337V/G338L/T339D/L341F/R342C/M343V): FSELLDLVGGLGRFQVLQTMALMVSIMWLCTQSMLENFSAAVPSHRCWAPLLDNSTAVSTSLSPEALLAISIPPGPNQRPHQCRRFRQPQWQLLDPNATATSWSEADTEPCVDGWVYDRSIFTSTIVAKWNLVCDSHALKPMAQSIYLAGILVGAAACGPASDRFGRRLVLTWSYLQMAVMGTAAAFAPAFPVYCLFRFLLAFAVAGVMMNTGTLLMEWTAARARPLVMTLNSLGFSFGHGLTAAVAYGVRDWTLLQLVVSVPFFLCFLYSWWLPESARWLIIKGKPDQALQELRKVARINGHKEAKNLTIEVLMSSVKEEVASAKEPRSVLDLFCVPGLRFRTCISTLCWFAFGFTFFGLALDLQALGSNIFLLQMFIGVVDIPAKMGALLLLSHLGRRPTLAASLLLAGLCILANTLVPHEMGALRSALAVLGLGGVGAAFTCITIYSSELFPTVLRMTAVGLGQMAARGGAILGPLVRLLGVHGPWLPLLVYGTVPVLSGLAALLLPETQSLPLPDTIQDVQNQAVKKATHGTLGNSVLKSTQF
Experiment: 14C-urate uptake in HEK293 cells expressing URAT1EM (cryo-EM construct)
Format: cell-based
Description: Data are shown as mean ± SD; n = 3 biological replicates. In a, b, uptake buffer: 20 mM HEPES pH 7.4, 125 mM sodium gluconate, 4.8 mM potassium gluconate, 1.2 mM monobasic potassium phosphate, 1.2 mM magnesium sulfate, 1.3 mM calcium gluconate, and 5.6 mM glucose. c Cryo-EM density maps of URAT1 in the apo and substrate-bound states. […] Putative lipid densities are in light cyan. d Cryo-EM density maps of URAT1 in the drug-bound states. […] Putative lipid densities are in light cyan. e Diagram of URAT1 topology. ECD, extracellular domain. f Structure of URAT1 in the apo state. g Slice view of URAT1 in the apo state, showing the central cavity and opening to the intracellular side.
Human embryonic kidney (HEK) 293 cells (ATCC, CRL-3216) were seeded onto poly(D-lysine)-coated 96-well plates at a density of 0.3 × 10^5 cells per well and cultured at 37 °C until reaching approximately 70%–80% confluence. The cells were transiently transfected with plasmids encoding the URAT1 WT or mutants using Lipofectamine 3000 (Invitrogen, L3000001), following the manufacturer’s protocol. The transfected cells were cultured at 37 °C for 12 h. Following this, 10 mM sodium butyrate was added, and the cells were further incubated at 30 °C for an additional 24 h. […]

## O=C(c1cc(Cl)c(O)c(Cl)c1)N1CS(=O)(=O)c2ccccc21 [dotinurad]
  IC50: 190 nM
